Measurements taken from patent US20220267349A1, “HETEROCYCLIC COMPOUNDS” (Hoffmann-La Roche Inc., priority 2019, published 2022).

biological target: T1, MAGL (Homo sapiens, UniProt Q99685); test: 2-AG assay (MAGL inhibitory activity, hydrolysis of 2-arachidonoylglycerol followed by mass spectrometry); format: biochemical; details: 50 pM MAGL, 8 μM 2-arachidonoylglycerol, 15 min preincubation, 30 min incubation at RT
T1 sequence (Q99685 1-303): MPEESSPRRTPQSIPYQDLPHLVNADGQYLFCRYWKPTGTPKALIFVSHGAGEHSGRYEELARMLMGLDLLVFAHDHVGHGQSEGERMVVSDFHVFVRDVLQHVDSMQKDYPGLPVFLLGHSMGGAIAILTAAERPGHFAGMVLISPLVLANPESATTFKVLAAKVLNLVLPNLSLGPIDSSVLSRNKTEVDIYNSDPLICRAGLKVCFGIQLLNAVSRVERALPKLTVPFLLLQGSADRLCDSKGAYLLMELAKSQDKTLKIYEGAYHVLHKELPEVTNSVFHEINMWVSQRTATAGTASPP
Method: Compounds were profiled for MAGL inhibitory activity by determining the enzymatic activity by following the hydrolysis of the natural substrate 2-arachidonoylglycerol resulting in arachidonic acid, which can be followed by mass spectrometry. This assay is hereinafter abbreviated “2-AG assay”.
The 2-AG assay was carried out in 384 well assay plates (PP, Greiner Cat #784201) in a total volume of 20 μL. Compound dilutions were made in 100% DMSO (VWR Chemicals 23500.297) in a polypropylene plate in 3-fold dilution steps to give a final concentration range in the assay from 12.5 μM to 0.8 pM. 0.25 μL compound dilutions (100% DMSO) were added to 9 μL MAGL in assay buffer (50 mM TRIS (GIBCO, 15567-027), 1 mM EDTA (Fluka, 03690-100 ml), 0.01% (v/v) Tween. After shaking, the plate was incubated for 15 min at RT. To start the reaction, 10 μL 2-arachidonoylglycerol in assay buffer was added. The final concentrations in the assay was 50 pM MAGL and 8 μM 2-arachidonoylglyerol. After shaking and 30 min incubation at RT, the reaction was quenched by the addition of 40 μL of acetonitrile containing 4 μM of d8-arachidonic acid. The amount of arachidonic acid was traced by an online SPE system (Agilent Rapidfire) coupled to a triple quadrupole mass spectrometer (Agilent 6460). A C18 SPE cartridge (G9205A) was used in an acetonitrile/water liquid setup. The mass spectrometer was operated in negative electrospray mode following the mass transitions 303.1→259.1 for arachidonic acid and 311.1→267.0 for d8-arachidonic acid. The activity of the compounds was calculated based on the ratio of intensities [arachidonic acid/d8-arachidonic acid].

Going from `O=C1CC[C@H]2CCN(C(=O)N3CCC(C(c4ccccc4)c4ccccc4)CC3)C[C@H]2N1` (racemic) [Example 10, rac-(4aS,8aS)-7-(4-Benzhydrylpiperidine-1-carbonyl)octahydro-1,7-naphthyridin-2(1H)-one] to `O=C(N1CCC(C(c2ccccc2)c2ccccc2)CC1)N1CCc2ccc(=O)[nH]c2C1` [Example 8, 7-(4-Benzhydrylpiperidine-1-carbonyl)-1,5,6,8-tetrahydro-1,7-naphthyridin-2-one], the IC50 rises from 0.06 nM to 3 nM (50-fold). The first is the more potent here.

Compared with `O=C1CC[C@H]2CCN(C(=O)N3CC(OCc4ccc(C(F)(F)F)cc4F)C3)C[C@H]2N1` (racemic) [Example 11, rac-(4aS,8aS)-7-[3-[[2-Fluoro-4-(trifluoromethyl)phenyl]methoxy]azetidine-1-carbonyl]-1,3,4,4a,5,6,8,8a-octahydro-1,7-naphthyridin-2-one], `O=C1CC(O)[C@H]2CCN(C(=O)N3CC(OCc4ccc(C(F)(F)F)cc4F)C3)C[C@H]2N1` (mixture of isomers) [Example 18, rac-(4aS,8aS)-7-[3-[[2-fluoro-4-(trifluoromethyl)phenyl]methoxy]azetidine-1-carbonyl]-4-hydroxy-1,3,4,4a,5,6,8,8a-octahydro-1,7-naphthyridin-2-one] is 350-fold higher in IC50: 3.1 nM for the first, 1100 nM for the second.

Going from `O=C1CN[C@H]2CCN(C(=O)N3CC(OCc4ccc(C(F)(F)F)cc4F)C3)C[C@H]2N1` (racemic) [Example 12, rac-(4aR,8aS)-6-[3-[[2-Fluoro-4-(trifluoromethyl)phenyl]methoxy]azetidine-1-carbonyl]-1,2,4,4a,5,7,8,8a-octahydropyrido[3,4-b]pyrazin-3-one] to `O=C1CN[C@@H]2CCN(C(=O)N3CC(OCc4ccc(C(F)(F)F)cc4F)C3)C[C@@H]2N1` (single isomer, unassigned) [Example 14, (4aS,8aR)- or (4aS,8aR)-6-[3-[[2-Fluoro-4-(trifluoromethyl)phenyl]methoxy]azetidine-1-carbonyl]-1,2,4,4a,5,7,8,8a-octahydropyrido[3,4-b]pyrazin-3-one], the IC50 rises from 72.8 nM to 1430 nM (20-fold). The first is the more potent here.

First: C[C@H]1CN(C(=O)N2CC(OCc3ccc(C(F)(F)F)cc3F)C2)C[C@H]2NC(=O)CO[C@@H]12 (relative stereo) [Example 1, rel-(4aR,8S,8aS)-6-[3-[[2-Fluoro-4-(trifluoromethyl)phenyl]methoxy]azetidine-1-carbonyl]-8-methyl-4,4a,5,7,8,8a-hexahydropyrido[4,3-b][1,4]oxazin-3-one]
Second: CC1CN(C(=O)N2CC(OCc3ccc(C(F)(F)F)cc3F)C2)CC2NC(=O)COC12 [Example 2, rel-(4aS,8R,8aR)-6-[3-[[2-Fluoro-4-(trifluoromethyl)phenyl]methoxy]azetidine-1-carbonyl]-8-methyl-4,4a,5,7,8,8a-hexahydropyrido[4,3-b][1,4]oxazin-3-one]
The IC50 of the first is 27-fold lower: 4.4 nM for the first, 118 nM for the second.

Going from `O=C1CO[C@H]2[C@H](CN(C(=O)N3CC(OCc4ccc(C(F)(F)F)cc4F)C3)CC2(F)F)N1` (single isomer, unassigned) [Example 3] to `O=C1CO[C@@H]2[C@@H](CN(C(=O)N3CC(OCc4ccc(C(F)(F)F)cc4F)C3)CC2(F)F)N1` (single isomer, unassigned) [Example 4], the IC50 rises from 11.1 nM to 1370 nM (120-fold). The first is the more potent here.

Compared with `O=C1CO[C@H]2[C@H](CN(C(=O)N3CC(c4ccc(CC(F)(F)F)cc4)C3)CC2(F)F)N1` (single isomer, unassigned) [Example 5], `O=C1CO[C@@H]2[C@@H](CN(C(=O)N3CC(c4ccc(CC(F)(F)F)cc4)C3)CC2(F)F)N1` (single isomer, unassigned) [Example 6] is 250-fold higher in IC50: 2.6 nM for the first, 649 nM for the second. The first is the more potent here.

Compared with `O=C1CN[C@H]2CCN(C(=O)N3CC(OCc4ccc(C(F)(F)F)cc4F)C3)C[C@H]2N1` (single isomer, unassigned) [Example 13, (4aR,8aS)- or (4aR,8aS)-6-[3-[[2-Fluoro-4-(trifluoromethyl)phenyl]methoxy]azetidine-1-carbonyl]-1,2,4,4a,5,7,8,8a-octahydropyrido[3,4-b]pyrazin-3-one], `O=C1CO[C@H]2CCN(C(=O)N3CC(OCc4ccc(C(F)(F)F)cc4F)C3)C[C@@]2(O)N1` [Example 16, (4aS,8aS)-6-[3-[[2-fluoro-4-(trifluoromethyl)phenyl]methoxy]azetidine-1-carbonyl]-4a-hydroxy-5,7,8,8a-tetrahydro-4H-pyrido[4,3-b][1,4]oxazin-3-one] is 5-fold higher in IC50: 159 nM for the first, 791 nM for the second.

`O=C1COC2=C(CN(C(=O)N3CCC(Cc4ccc(C(F)(F)F)cc4)CC3)CC2)N1` [Example 7, 6-[4-[[4-(Trifluoromethyl)phenyl]methyl]piperidine-1-carbonyl]-4,5,7,8-tetrahydropyrido[4,3-b][1,4]oxazin-3-one] and `O=C1CSC2=C(CN(C(=O)N3CC(OCc4ccc(C(F)(F)F)cc4F)C3)CC2)N1` [Example 17, 6-[3-[[2-fluoro-4-(trifluoromethyl)phenyl]methoxy]azetidine-1-carbonyl]-4,5,7,8-tetrahydropyrido[4,3-b][1,4]thiazin-3-one] are within 1.5-fold of each other in IC50: 51.8 nM for the first, 48.3 nM for the second.

For `O=C(N1CCc2ccc(=O)[nH]c2C1)N1CC(OCc2ccc(C(F)(F)F)cc2F)C1` [Example 9, 7-[3-[[2-Fluoro-4-(trifluoromethyl)phenyl]methoxy]azetidine-1-carbonyl]-1,5,6,8-tetrahydro-1,7-naphthyridin-2-one], the IC50 was 14.3 nM.
